Holding throughout (test): Bliss excess, mean over the matrix (fraction); higher = more synergy
The test system of assay [1] is LoVo (Colorectal Carcinoma). In outline:
(§1)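 Cell lines grown in DMEM/F12 or RPMI with 10% FBS were plated in 1536-well plates and held 24 hours at 37°C, 5% CO2 before 72 hours of exposure to two-drug dose matrices, with DMSO typically at 0.2%. CellTiter-Glo 2.0 luminescence gave viability, which was converted to inhibition. Vehicle wells were set to 0 and blank wells to 1. Combination Emax is the second-highest inhibition in the matrix, and Bliss excess is the observed combination effect minus the expected EA + EB − EA·EB, where EA and EB are the single-agent effects.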

The subject of assay [2] is LB771-HNC (Head and Neck Carcinoma). The method, boiled down: as §1
For assay [3], the system named is CTB-1 (B-Cell Non-Hodgkin's Lymphoma). In outline: as §1
The subject of assay [4] is LU-139 (Small Cell Lung Carcinoma). In outline: as §1
Assay [5] has as its system OC-314 (Ovarian Carcinoma). In outline:
as §1

For assay [6], the system named is 639-V (Bladder Carcinoma). In outline:
as §1

Assay [7] relates to EN (Endometrial Carcinoma). In outline: as §1
Assay [8] relates to RKO (Colorectal Carcinoma). In outline:
as §1

Assay [9] relates to TE-4 (Esophageal Squamous Cell Carcinoma). The method, boiled down:
as §1

Another assay has as its system SH-4 (Melanoma). In outline:
as §1

In assay [10] the test system is KYSE-410 (Esophageal Squamous Cell Carcinoma). The method, boiled down: as §1
Assay [11] has as its system NCI-H747 (Colorectal Carcinoma). In outline:
as §1

The test system of assay [12] is SW626 (Colorectal Carcinoma). The method, boiled down: as §1
Another assay deals with NB14 (Neuroblastoma). In outline: as §1
The test system of assay [13] is MHH-PREB-1 (B-Cell Non-Hodgkin's Lymphoma). The method, boiled down:
as §1

The next assay relates to NCI-H28 (Mesothelioma). The method, boiled down: as §1
Assay [14] deals with SW1271 (Small Cell Lung Carcinoma). In outline:
as §1

The test system of assay [15] is UMC-11 (Other Solid Carcinomas). In outline:
as §1

For a further assay, the system named is NCI-H2795 (Mesothelioma). In outline: as §1
The test system of assay [16] is HCC-15 (Squamous Cell Lung Carcinoma). In outline: as §1

On to `Cc1cc2ncnn2cc1Nc1ncc2c(n1)n(C1CCOCC1)c(=O)n2C` [AZD7648] + CCN(CCO)CCCOc1ccc2c(Nc3cc(CC(=O)Nc4cccc(F)c4)[nH]n3)ncnc2c1 [AZD2811] (first compound max 10 µM, 7x7, partner max 1 µM), for which the Bliss excess in [1] was -0.0126; in [2] it was 0; in assay [3], -0.0578; in [4], 0.0273; in assay [5], 0.0565; in [6], 0.0219. The Bliss excess in assay [7] is -0.0671; in assay [8], 0.0369; in assay [9], 0.0096; in the assay with SH-4 (Melanoma) it was -0.0059; in assay [10], -0.0046; in assay [11] it was -0.0205. The Bliss excess in assay [12] is -0.0688; in the assay with NB14 (Neuroblastoma) it was -0.0603; in [13], 0.0617; with NCI-H28 (Mesothelioma) it was 0.0016; in assay [14], -0.0081; in assay [15], -0.0884. The Bliss excess is 0.009 in the assay on NCI-H2795 (Mesothelioma) and 0.0043 in assay [16].

For the compound `CN(C)CCCOc1ccc(-c2ccc3ncc4c(c3c2)n(C2CCOCC2)c(=O)n4C)cn1` [AZD0156] + C=CCn1c(=O)c2cnc(Nc3ccc(N4CCN(C)CC4)cc3)nc2n1-c1cccc(C(C)(C)O)n1 [AZD1775] (first compound max 1 µM, partner max 1 µM), the Bliss excess in assay [1] was -0.0533; in [2], -0.0593; in assay [3] it was 0.0101; in assay [4] it was -0.0479; in assay [5] it was -0.0141; in assay [6] it was -0.0232. The Bliss excess in assay [7] was -0.0767; in assay [8], -0.0252; in [9], -0.0599; in the assay on SH-4 (Melanoma) it was -0.0219; in assay [10], -0.0464; in assay [11], -0.0309. The Bliss excess in assay [12] is -0.0576; in the assay on NB14 (Neuroblastoma), -0.0198; in [13], 0.0036; with NCI-H28 (Mesothelioma), -0.0066; in assay [14], -0.0895; in [15] it was -0.0358. For the same compound, the Bliss excess was -0.0131 with NCI-H2795 (Mesothelioma) and -0.0346 in assay [16].

Consider `Cc1c2c(nn1C)CSCc1cc(n(C)n1)CSc1cc(c3ccccc3c1)OCCCc1c(C(=O)O)n(C)c3c-2c(Cl)ccc13` [AZD5991] + Cn1cnc2c(F)c(Nc3ccc(Br)cc3Cl)c(C(=O)NOCCO)cc21 [Selumetinib] (first compound max 1 µM, 7x7, partner max 3 µM), for which the Bliss excess in [1] is 0.0074; in [2], -0.0118; in assay [3], -0.02; in assay [4] it was -0.0283; in assay [5], -0.0313; in [6], 0.0247. Also, the Bliss excess in assay [7] is -0.0494; in assay [8] it was 0.0143; in assay [9], 0.0329; with SH-4 (Melanoma), 0.0465; in assay [10] it was -0.0058; in assay [11] it was 0.0032. The Bliss excess is 0.0233 in assay [12]; 0.0392 in the assay on NB14 (Neuroblastoma); 0.0113 in assay [13]; -0.026 in the assay on NCI-H28 (Mesothelioma); -0.0287 in [14]; 0.0198 in assay [15]. Moreover, the Bliss excess in the assay on NCI-H2795 (Mesothelioma) was found to be 0.0278; in [16], 0.0217.

Regarding `Cc1cc2ncnn2cc1Nc1ncc2c(n1)n(C1CCOCC1)c(=O)n2C` [AZD7648] + C=CCn1c(=O)c2cnc(Nc3ccc(N4CCN(C)CC4)cc3)nc2n1-c1cccc(C(C)(C)O)n1 [AZD1775] (first compound max 10 µM, partner max 1 µM), the Bliss excess in assay [1] was -0.0658; in [2], -0.0078; in assay [3], -0.0542; in assay [4], -0.0642; in assay [5], 0.0579; in assay [6], 0.049. For the same compound, the Bliss excess in [7] was -0.0608; in [8] it was -0.032; in [9], -0.079; in the assay on SH-4 (Melanoma) it was 0.0332; in [10], -0.0094; in assay [11], -0.0108. For the same compound, the Bliss excess is 0.0341 in assay [12]; 0.0014 with NB14 (Neuroblastoma); 0.028 in assay [13]; 0.0291 in the assay with NCI-H28 (Mesothelioma); -0.0199 in [14]; -0.0202 in assay [15]. For the same compound, the values for the Bliss excess (with NCI-H2795 (Mesothelioma); in assay [16]) were 0.056 and 0.0339, respectively.

For `Cc1c2c(nn1C)CSCc1cc(n(C)n1)CSc1cc(c3ccccc3c1)OCCCc1c(C(=O)O)n(C)c3c-2c(Cl)ccc13` [AZD5991] + C[C@@H]1COCCN1C2=NC(=NC(=C2)C3(CC3)[S@](=N)(=O)C)C4=C5C=CNC5=NC=C4 [AZD6738] (first compound max 1 µM, 7x7, partner max 10 µM), the Bliss excess in assay [1] was -0.033; in assay [2], 0.0599; in assay [3], -0.0314; in [4] it was 0.0214; in assay [5] it was 0.0197; in assay [6], 0.0431. Besides, the Bliss excess in assay [7] was -0.0039; in assay [8], 0.0082; in [9], 0.0683; in the assay with SH-4 (Melanoma), 0.0323; in assay [10], 0.0281; in assay [11], -0.018. Moreover, the Bliss excess in [12] is 0.0268; with NB14 (Neuroblastoma), -0.0038; in assay [13], -0.0095; with NCI-H28 (Mesothelioma) it was 0.0026; in [14], 0.0121; in [15] it was -0.0265. Further, the Bliss excess with NCI-H2795 (Mesothelioma) stood at 0.0835; in assay [16], 0.0549.

On to `CC1(C)CCC(CN2CCN(c3ccc(C(=O)NS(=O)(=O)c4ccc(NCC5CCOCC5)c([N+](=O)[O-])c4)c(Oc4cnc5[nH]ccc5c4)c3)CC2)=C(c2ccc(Cl)cc2)C1` [Venetoclax] + Cn1cnc2c(F)c(Nc3ccc(Br)cc3Cl)c(C(=O)NOCCO)cc21 [Selumetinib] (first compound max 1 µM, 7x7, partner max 3 µM), for which the Bliss excess in assay [1] is -0.0458; in assay [2], -0.0555; in assay [3], -0.0475; in assay [4], -0.0357; in [5], -0.0214; in assay [6] it was 0.0346. Further, the Bliss excess in assay [7] is -0.0325; in assay [8], 0.0171; in [9], -0.0277; in the assay with SH-4 (Melanoma), -0.0306; in assay [10], -0.0393; in assay [11] it was -0.0489. The Bliss excess is -0.0877 in [12]; -0.0221 in the assay with NB14 (Neuroblastoma); 0.0028 in assay [13]; -0.0449 in the assay on NCI-H28 (Mesothelioma); -0.0255 in assay [14]; -0.0424 in [15]. The Bliss excess in the assay with NCI-H2795 (Mesothelioma) was -0.0354; in assay [16], 0.0315.

In the case of `COc1cccc(OCCCN)c1-c1cc(Nc2cnc(C#N)cn2)n[nH]1` [Prexasertib] + C=CCn1c(=O)c2cnc(Nc3ccc(N4CCN(C)CC4)cc3)nc2n1-c1cccc(C(C)(C)O)n1 [AZD1775] (first compound max 1 µM, partner max 1 µM), the Bliss excess in assay [1] amounted to 0.0269; in assay [2] it was 0.0424; in [3], 0.0374; in assay [4], 0.0089; in assay [5], 0.0884; in assay [6], 0.178. Moreover, the Bliss excess is 0.0115 in [7]; 0.0521 in assay [8]; 0.0905 in assay [9]; 0.0591 with SH-4 (Melanoma); 0.0066 in assay [10]; 0.0623 in assay [11]. Further, the Bliss excess was 0.0304 in [12]; 0.0486 in the assay on NB14 (Neuroblastoma); 0.0729 in assay [13]; -0.0145 in the assay on NCI-H28 (Mesothelioma); 0.0019 in assay [14]; 0.0712 in assay [15]. In addition, the figures for the Bliss excess (with NCI-H2795 (Mesothelioma); in assay [16]) were 0.0221 and 0.0293, respectively.

Values taken from the supplement of paper PMC11061612.
